Measurements as given in patent US10934310B2, “Inhibitors of Bruton's tyrosine kinase and method of their use” (JANSSEN PHARMACEUTICA NV, priority 2015, dated 2021).

Biological target: unphosphorylated-BTK kinase domain (UP-BTK), GST-tagged human BTK (389-659aa) (Homo sapiens (Human), UniProt Q06187)
Test: BTK Kinase Lanthascreen Binding Assay
Conditions: for BTK_I_binding pIC50: compound, 50 nM Tracer 236, 2 nM anti-GST antibody, 60 minutes, pIC50 = negative log of the IC50 in molar
Description: BTK Kinase Lanthascreen Binding Assay:
A BTK kinase lanthascreen binding assay monitors compound binding to unphosphorylated-BTK kinase domain (UP-BTK), by competing with a fluorescent labeled tracer. […] Data were analyzed using Xlfit™ version 5.3 from ID Business Solutions (Guildford), Microsoft Excel add-in. pIC50 refers to the negative log of the IC50 in molar.

Sequence of unphosphorylated-BTK kinase domain (UP-BTK), GST-tagged human BTK (389-659aa) (Q06187 389-659): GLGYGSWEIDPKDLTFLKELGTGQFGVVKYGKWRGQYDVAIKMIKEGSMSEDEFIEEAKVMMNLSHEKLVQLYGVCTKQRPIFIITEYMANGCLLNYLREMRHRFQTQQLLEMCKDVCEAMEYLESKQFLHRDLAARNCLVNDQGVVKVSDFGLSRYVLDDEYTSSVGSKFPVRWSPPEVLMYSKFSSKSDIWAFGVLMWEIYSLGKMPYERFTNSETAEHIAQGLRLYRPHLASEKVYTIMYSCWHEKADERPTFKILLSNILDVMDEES

SMILES: C=CC(=O)N[C@@H]1CC[C@H](NC(=O)c2sc3nccc4c3c2NC(=O)N4c2ccc(Oc3ccccc3)c(Cl)c2)C1 [Example 191, N-((1S,3R)-3-Acrylamidocyclopentyl)-5-(3-chloro-4-phenoxyphenyl)-4-oxo-4,5-dihydro-3H-1-thia-3,5,8-triazaacenaphthylene-2-carboxamide]
- BTK_I_binding pIC50: 7.95

SMILES: C=CC(=O)N[C@H]1CCC[C@H]1NC(=O)c1sc2nccc3c2c1NC(=O)N3c1cncc(-c2ccccc2)c1 [Example 192, N-((1R,2S)-2-Acrylamidocyclopentyl)-4-oxo-5-(5-phenylpyridin-3-yl)-4,5-dihydro-3H-1-thia-3,5,8-triazaacenaphthylene-2-carboxamide]
- BTK_I_binding pIC50: 7.92

SMILES: C=CC(=O)N[C@H]1CCC[C@H]1NC(=O)c1sc2nccc3c2c1NC(=O)N3c1cccc(-c2ccccc2)c1 [Example 193, 5-([1,1′-Biphenyl]-3-yl)-N-((1R,2S)-2-acrylamidocyclopentyl)-4-oxo-4,5-dihydro-3H-1-thia-3,5,8-triazaacenaphthylene-2-carboxamide]
- BTK_I_binding pIC50: 8.09

SMILES: C=CC(=O)N[C@H]1CCC[C@H]1NC(=O)c1sc2nccc3c2c1NC(=O)N3c1cccc(-c2ccccn2)c1 [Example 194, N-((1R,2S)-2-Acrylamidocyclopentyl)-4-oxo-5-(3-(pyridin-2-yl)phenyl)-4,5-dihydro-3H-1-thia-3,5,8-triazaacenaphthylene-2-carboxamide]
- BTK_I_binding pIC50: 7.89

SMILES: C=CC(=O)N[C@@H]1CC[C@H](NC(=O)c2sc3nccc4c3c2NC(=O)N4c2ccnc(-c3ccccc3)c2)C1 [Example 198, N-((1S,3R)-3-Acrylamidocyclopentyl)-4-oxo-5-(2-phenylpyridin-4-yl)-4,5-dihydro-3H-1-thia-3,5,8-triazaacenaphthylene-2-carboxamide]
- BTK_I_binding pIC50: 7.98

SMILES: C=CC(=O)N[C@H]1CCC[C@H]1NC(=O)c1sc2nccc3c2c1NC(=O)N3c1ccc(Oc2cccnc2)cc1C [Example 199, N-((1R,2S)-2-Acrylamidocyclopentyl)-5-(2-methyl-4-(pyridin-3-yloxy)phenyl)-4-oxo-4,5-dihydro-3H-1-thia-3,5,8-triazaacenaphthylene-2-carboxamide]
- BTK_I_binding pIC50: 8.13

SMILES: C=CC(=O)N[C@H]1CCC[C@H]1NC(=O)c1sc2nccc3c2c1NC(=O)N3c1cnc(Oc2ccccc2)cn1 [Example 201, N-((1R,2S)-2-Acrylamidocyclopentyl)-4-oxo-5-(5-phenoxypyrazin-2-yl)-4,5-dihydro-3H-1-thia-3,5,8-triazaacenaphthylene-2-carboxamide]
- BTK_I_binding pIC50: 8.32

SMILES: C=CC(=O)N[C@H]1CCC[C@H]1NC(=O)c1sc2nccc3c2c1NC(=O)N3c1cccc(-c2cccnc2)c1 [Example 202, N-((1R,2S)-2-Acrylamidocyclopentyl)-4-oxo-5-(3-(pyridin-3-yl)phenyl)-4,5-dihydro-3H-1-thia-3,5,8-triazaacenaphthylene-2-carboxamide]
- BTK_I_binding pIC50: 7.90

SMILES: C=CC(=O)N[C@H]1CCC[C@H]1NC(=O)c1sc2nccc3c2c1NC(=O)N3c1cnnc(-c2ccccc2)c1 [Example 203, N-((1R,2S)-2-Acrylamidocyclopentyl)-4-oxo-5-(6-phenylpyridazin-4-yl)-4,5-dihydro-3H-1-thia-3,5,8-triazaacenaphthylene-2-carboxamide]
- BTK_I_binding pIC50: 8.06

SMILES: C=CC(=O)N[C@H]1CCC[C@H]1NC(=O)c1sc2nccc3c2c1NC(=O)N3c1ccc(OC(C)C)cc1 [Example 205, N-((1R,2S)-2-Acrylamidocyclopentyl)-5-(4-isopropoxyphenyl)-4-oxo-4,5-dihydro-3H-1-thia-3,5,8-triazaacenaphthylene-2-carboxamide]
- BTK_I_binding pIC50: 7.62

SMILES: C=CC(=O)N[C@H]1CCC[C@H]1NC(=O)c1sc2nccc3c2c1NC(=O)N3c1ccc(OC2CCOCC2)cc1C [Example 206, N-((1R,2S)-2-Acrylamidocyclopentyl)-5-(2-methyl-4-((tetrahydro-2H-pyran-4-yl)oxy)phenyl)-4-oxo-4,5-dihydro-3H-1-thia-3,5,8-triazaacenaphthylene-2-carboxamide]
- BTK_I_binding pIC50: 7.33

SMILES: C=CC(=O)N[C@H]1CCC[C@H]1NC(=O)c1sc2nccc3c2c1NC(=O)N3c1ccnc(C(C)C)c1 [Example 207, N-((1R,2S)-2-Acrylamidocyclopentyl)-5-(2-isopropylpyridin-4-yl)-4-oxo-4,5-dihydro-3H-1-thia-3,5,8-triazaacenaphthylene-2-carboxamide]
- BTK_I_binding pIC50: 7.53

SMILES: C=CC(=O)N[C@H]1CC[C@@H](NC(=O)c2sc3nccc4c3c2NC(=O)N4c2ccnc(-c3ccccc3)c2)C1 [Example 208, N-((1R,3S)-3-Acrylamidocyclopentyl)-4-oxo-5-(2-phenylpyridin-4-yl)-4,5-dihydro-3H-1-thia-3,5,8-triazaacenaphthylene-2-carboxamide]
- IC50 (read-out: BTK_I_binding pIC50 (converted)): > 1000 nM

SMILES: C=CC(=O)N[C@H]1CCCC[C@H]1NC(=O)c1sc2nccc3c2c1NC(=O)N3c1ccc(OC(C)C)nc1C [Example 211, N-((1R,2S)-2-Acrylamidocyclohexyl)-5-(6-isopropoxy-2-methylpyridin-3-yl)-4-oxo-4,5-dihydro-3H-1-thia-3,5,8-triazaacenaphthylene-2-carboxamide]
- BTK_I_binding pIC50: 6.92

SMILES: C=CC(=O)N[C@@H]1CC[C@@H](NC(=O)c2sc3nccc4c3c2NC(=O)N4c2ccnc(-c3ccccc3)c2)C1 [Example 212, N-((1R,3R)-3-Acrylamidocyclopentyl)-4-oxo-5-(2-phenylpyridin-4-yl)-4,5-dihydro-3H-1-thia-3,5,8-triazaacenaphthylene-2-carboxamide]
- BTK_I_binding pIC50: 7.49

SMILES: Cc1cc(Oc2ccccc2)ccc1N1C(=O)Nc2c(C(=O)N[C@@H]3CC[C@@H](NC(=O)CN(C)C)C3)sc3nccc1c23 [Example 217, N-((1R,3R)-3-(2-(Dimethylamino)acetamido)cyclopentyl)-5-(2-methyl-4-phenoxyphenyl)-4-oxo-4,5-dihydro-3H-1-thia-3,5,8-triazaacenaphthylene-2-carboxamide]
- BTK_I_binding pIC50: 7.44

SMILES: C=CC(=O)N[C@@H]1CCCC[C@H]1NC(=O)c1sc2nccc3c2c1NC(=O)N3c1ccc(Oc2ccccc2)cn1 [Example 218, N-((1R,2R)-2-Acrylamidocyclohexyl)-4-oxo-5-(5-phenoxypyridin-2-yl)-4,5-dihydro-3H-1-thia-3,5,8-triazaacenaphthylene-2-carboxamide]
- BTK_I_binding pIC50: 6.76

SMILES: C=CC(=O)N[C@H]1CCC[C@H]1NC(=O)c1sc2nccc3c2c1NC(=O)N3c1ccc(Oc2ccccn2)cc1C [Example 220, N-((1R,2S)-2-acrylamidocyclopentyl)-5-(2-methyl-4-(pyridin-2-yloxy)phenyl)-4-oxo-4,5-dihydro-3H-1-thia-3,5,8-triazaacenaphthylene-2-carboxamide]
- BTK_I_binding pIC50: 8.16

SMILES: C=CC(=O)N[C@H]1CCCC[C@H]1NC(=O)c1sc2nccc3c2c1NC(=O)N3c1cnc(OC2CCCC2)cc1C [Example 223, N-((1R,2S)-2-Acrylamidocyclohexyl)-5-(6-(cyclopentyloxy)-4-methylpyridin-3-yl)-4-oxo-4,5-dihydro-3H-1-thia-3,5,8-triazaacenaphthylene-2-carboxamide]
- BTK_I_binding pIC50: 7.81

SMILES: C=CC(=O)N[C@H]1CCC[C@H]1NC(=O)c1sc2nccc3c2c1NC(=O)N3c1ccc(Oc2ncccn2)cc1C [Example 224, N-((1R,2S)-2-acrylamidocyclopentyl)-5-(2-methyl-4-(pyrimidin-2-yloxy)phenyl)-4-oxo-4,5-dihydro-3H-1-thia-3,5,8-triazaacenaphthylene-2-carboxamide]
- BTK_I_binding pIC50: 7.46

SMILES: C=CC(=O)N[C@H]1CCCC[C@H]1NC(=O)c1sc2nccc3c2c1NC(=O)N3c1cnc(OCC(C)C)cc1C [Example 225, N-((1R,2S)-2-Acrylamidocyclohexyl)-5-(6-isobutoxy-4-methylpyridin-3-yl)-4-oxo-4,5-dihydro-3H-1-thia-3,5,8-triazaacenaphthylene-2-carboxamide]
- BTK_I_binding pIC50: 7.66

SMILES: C=CC(=O)N[C@@H]1CCCC[C@H]1NC(=O)c1sc2nccc3c2c1NC(=O)N3c1ccnc(-c2ccccc2)c1 [Example 227, N-((1R,2R)-2-Acrylamidocyclohexyl)-4-oxo-5-(2-phenylpyridin-4-yl)-4,5-dihydro-3H-1-thia-3,5,8-triazaacenaphthylene-2-carboxamide]
- BTK_I_binding pIC50: 6.76

SMILES: CC(=O)N[C@@H]1CC[C@@H](NC(=O)c2sc3nccc4c3c2NC(=O)N4c2ccc(Oc3ccccc3)cc2C)C1 [Example 228, N-((1R,3R)-3-Acetamidocyclopentyl)-5-(2-methyl-4-phenoxyphenyl)-4-oxo-4,5-dihydro-3H-1-thia-3,5,8-triazaacenaphthylene-2-carboxamide]
- BTK_I_binding pIC50: 7.34

SMILES: CNCC(=O)N[C@@H]1CC[C@@H](NC(=O)c2sc3nccc4c3c2NC(=O)N4c2ccc(Oc3ccccc3)cc2C)C1 [Example 229, 5-(2-Methyl-4-phenoxyphenyl)-N-((1R,3R)-3-(2-(methylamino)acetamido)cyclopentyl)-4-oxo-4,5-dihydro-3H-1-thia-3,5,8-triazaacenaphthylene-2-carboxamide]
- BTK_I_binding pIC50: 7.29

SMILES: C=CC(=O)N[C@@H]1CCC[C@@H](NC(=O)c2sc3nccc4c3c2NC(=O)N4c2ccnc(-c3ccccc3)c2)C1 [Example 232, N-((1R,3R)-3-Acrylamidocyclohexyl)-4-oxo-5-(2-phenylpyridin-4-yl)-4,5-dihydro-3H-1-thia-3,5,8-triazaacenaphthylene-2-carboxamide]
- BTK_I_binding pIC50: 7.05
